Counter-ions that a name gives are not always drawn. Like-named read-outs stand apart in the source and are kept apart here.
Key:
EZH2 (rPRC2) = EZH2 (rPRC2) (Homo sapiens, UniProt Q15910); assay: EZH2 assay: rPRC2, biotinylated oligonucleosomes, 3H SAM methyl transfer (FlashPlate scintillation); type: biochemical; details: biotinylated oligonucleosome substrate
Y641N EZH2 = Y641N EZH2 (Homo sapiens, UniProt Q15910, Y641N); assay: Y641N EZH2 assay: as EZH2 assay, with reconstituted H3K27Me2 oligonucleosomes as substrate; type: biochemical
Y641N EZH2, sequence (Q15910 whole entry Y641N): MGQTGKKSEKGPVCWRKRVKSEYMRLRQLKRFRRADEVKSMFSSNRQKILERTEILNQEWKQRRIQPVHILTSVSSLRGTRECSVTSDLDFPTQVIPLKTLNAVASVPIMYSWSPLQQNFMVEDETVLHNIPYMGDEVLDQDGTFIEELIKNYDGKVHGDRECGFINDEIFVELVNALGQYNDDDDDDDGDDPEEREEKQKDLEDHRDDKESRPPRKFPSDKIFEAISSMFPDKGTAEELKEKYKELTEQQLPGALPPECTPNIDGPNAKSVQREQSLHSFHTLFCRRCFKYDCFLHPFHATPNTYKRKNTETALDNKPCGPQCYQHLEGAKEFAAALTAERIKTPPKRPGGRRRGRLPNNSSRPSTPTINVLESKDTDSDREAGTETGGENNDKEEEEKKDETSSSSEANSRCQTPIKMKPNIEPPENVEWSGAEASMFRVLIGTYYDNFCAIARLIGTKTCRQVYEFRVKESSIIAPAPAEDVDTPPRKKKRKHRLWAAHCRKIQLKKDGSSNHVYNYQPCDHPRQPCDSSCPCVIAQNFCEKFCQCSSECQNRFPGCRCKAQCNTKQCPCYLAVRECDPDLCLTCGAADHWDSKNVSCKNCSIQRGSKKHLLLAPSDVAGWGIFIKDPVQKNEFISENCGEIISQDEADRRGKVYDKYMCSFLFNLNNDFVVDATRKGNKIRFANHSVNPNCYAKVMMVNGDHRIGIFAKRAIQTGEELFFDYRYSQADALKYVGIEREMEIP
Y641N EZH2, sequence (O75530 whole entry partner): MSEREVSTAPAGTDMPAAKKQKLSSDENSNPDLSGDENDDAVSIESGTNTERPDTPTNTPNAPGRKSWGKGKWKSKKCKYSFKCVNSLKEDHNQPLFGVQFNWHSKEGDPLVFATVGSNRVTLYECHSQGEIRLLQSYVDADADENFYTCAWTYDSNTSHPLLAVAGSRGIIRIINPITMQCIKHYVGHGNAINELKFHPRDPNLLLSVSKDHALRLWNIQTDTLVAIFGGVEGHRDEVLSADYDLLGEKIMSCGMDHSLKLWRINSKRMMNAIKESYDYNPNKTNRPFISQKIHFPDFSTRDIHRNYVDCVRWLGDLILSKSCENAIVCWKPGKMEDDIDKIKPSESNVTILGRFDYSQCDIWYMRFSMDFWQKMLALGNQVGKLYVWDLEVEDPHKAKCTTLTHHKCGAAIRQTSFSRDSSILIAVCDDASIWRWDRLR
Y641N EZH2, sequence (Q15022 whole entry partner): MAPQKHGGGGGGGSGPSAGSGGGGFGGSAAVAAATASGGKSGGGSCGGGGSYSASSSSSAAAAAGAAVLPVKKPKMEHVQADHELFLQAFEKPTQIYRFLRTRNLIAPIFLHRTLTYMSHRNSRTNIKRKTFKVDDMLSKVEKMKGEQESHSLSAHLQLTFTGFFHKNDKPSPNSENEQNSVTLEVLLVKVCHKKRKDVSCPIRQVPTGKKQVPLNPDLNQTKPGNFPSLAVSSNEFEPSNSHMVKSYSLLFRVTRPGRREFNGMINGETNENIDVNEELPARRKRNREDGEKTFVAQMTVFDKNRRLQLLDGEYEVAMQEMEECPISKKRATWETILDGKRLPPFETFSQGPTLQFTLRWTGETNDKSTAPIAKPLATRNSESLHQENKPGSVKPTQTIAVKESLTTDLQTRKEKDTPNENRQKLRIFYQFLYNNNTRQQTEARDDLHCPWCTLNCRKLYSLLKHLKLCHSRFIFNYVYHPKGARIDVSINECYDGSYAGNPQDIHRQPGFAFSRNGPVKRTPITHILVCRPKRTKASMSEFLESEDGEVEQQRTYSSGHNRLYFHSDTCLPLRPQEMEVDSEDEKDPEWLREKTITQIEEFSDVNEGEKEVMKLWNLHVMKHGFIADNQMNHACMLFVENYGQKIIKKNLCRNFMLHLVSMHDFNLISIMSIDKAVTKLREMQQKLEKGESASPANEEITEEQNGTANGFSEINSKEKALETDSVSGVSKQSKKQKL

[1] = tested on: H3K27me3 mark in HeLa cells; assay: H3K27me3 MSD Hela Assay; type: cell-based
Procedure: Trypsinized HeLa cells were counted and diluted in 10% DMEM (Life Technologies, Cat. #10569) to 5000 cells/75 μL. Seventy-five […] of cells were place in each well of a 96-well flat-bottomed plate and incubated at 37° C. for 4 hours. Twenty-five μL of test compound (at various concentrations) was added to the cells and incubation continued at 37° C. for 96 hours. Media was then removed and the cells rinsed once with ice cold PBS. Forty μL of ice-cold MSD Buffer AT (10 mM HEPES, pH 7.9, 5 mM MgCl2, 0.25M sucrose, Benzonase (1:10000), 1% Triton X-100 supplemented with fresh 1× Protease Inhibitor cocktail and 1 mM 4-(2-Aminoethyl)benzenesulfonyl fluoride hydrochloride (AEBSF)) was added to each well and the plates placed on ice for 30 minutes. Ten μL of 5M NaCl was then added to each well and incubation on ice continued for another 15 minutes. The material in each well was suspended pipetting up and down and then transferred to a new 96 well plate. The emptied wells were rinsed with 150 uL ice-cold 20 mM Tris pH 7.5, 1 mM EDTA, 1 mM EGTA, supplemented with fresh 1× Protease Inhibitor cocktail and 1 mM AEBSF (“NO salt NO detergent buffer) and transferred to the respective wells in the new plate. Three hundred μL of NO Salt NO detergent buffer was then added to each well of lysates and the plates frozen at −80° C.
On the same day, an appropriate number of MSD standard bind 96-well plates were coated with 30 μL/well of total H3 capture antibody (Millipore. Cat #MAB3422) at 1 μg/mL concentration in PBS. The antibody solution was evenly distributed first by tapping gently on the sides of the plates and then by shaking the plates for a few minutes at 1000 rpm. Antibody coated plates were stored at 4° C. overnight.
The next day the lysates are thawed to RT. The antibody coated MSD plates are washed 3× with TBS-T (Tris-buffered saline (Fisher Scientific, Cat #BP2471-1)+0.2% Tween-20). One-hundred fifty μL of 5% Blocker A in TBS-T is added to each well. The wells are covered and shaken on a shaker at RT for one hour. The Blocker A step is repeated a second time. After removing the blocker, 25 μL of cell lysate is transferred into each antibody coated well. The plates are shaken for 2 hours at RT, the lysate removed and the plates again washed with Blocker A in TBS-T. Twenty-five μL of appropriate freshly prepared antibody mix (including both primary and secondary antibodies) is added to each well and the plates shaken for 1 hour at RT.
Both H3 antibodies were obtained from Cell Signalling (Cat #s 4499 and 9733). The goat anti-rabbit antibody was obtained from Meso-Scale Discovery (Cat #R32AB-1).
The antibody mix was then removed and the wells washed with Blocker A. One hundred-fifty μL of freshly prepared 1×MSD Read Buffer (Meso-Scale Discovery; Cat #R927C-2) was then added to each well and the plates read on a MSD Sector 2400 Plate Reader.
Data was analyzed using Assay Assistant (Constellation Pharmaceuticals In-house product) and Activity Base (IDBS Ltd, Surrey, UK) template. Data files were imported to Assay Assistant and assay conditions were specified. A unique Analysis ID was created and the data files exported to Activity Base. An analysis template was created on Activity Base to measure dose-dependent inhibition of H3K27me3 mark and cell viability respectively. Readout of DMSO wells were used to normalize the data. Resulting curves were fitted using Activity base software Model 205 (IDBS Ltd. Surrey, UK). The data was checked for quality, validated and integrated in excel format using SARview (IDBS Ltd, Surrey, UK).

[2] = EZH2 IC50, wild-type EZH2 (rPRC2)
[3] = Y641N EZH2 IC50, Y641N mutant EZH2, H3K27Me2 oligonucleosome substrate
[4] = Homo sapiens, HeLa, 96 h, read-out: H3K27me3_MSD_HeLa_ (EC50)

EZH2 (rPRC2), sequence (Q15910 whole entry): as the sequence (Q15910 whole entry Y641N) above, with N641Y counted along it
EZH2 (rPRC2), sequence (O75530 whole entry partner): as the sequence (O75530 whole entry partner) above
EZH2 (rPRC2), sequence (Q15022 whole entry partner): as the sequence (Q15022 whole entry partner) above

In the case of Cc1cc(C)c(CNC(=O)c2c(C)n(C(C)c3cccc(C#N)c3)c3ccccc23)c(=O)[nH]1 (single isomer, unassigned) [Compound 227, (R or S)-1-(1-(3-cyanophenyl)ethyl)-N-((4,6-dimethyl-2-oxo-1,2-dihydropyridin-3-yl)methyl)-2-methyl-1H-indole-3-carboxamide], the IC50 (EZH2 (rPRC2); [2]) is reported as under 100 nM, the IC50 (Y641N EZH2; [3]) is reported as under 100 nM and the EC50 [1, 4] is reported as 400 to 2000 nM.
Cc1cc(C)c(CNC(=O)c2c(C)n(C(C)c3ccn(C)c(=O)c3)c3ccccc23)c(=O)[nH]1 (racemic) [Compound 222, (±)-N-((4,6-dimethyl-2-oxo-1,2-dihydropyridin-3-yl)methyl)-2-methyl-1-(1-(1-methyl-2-oxo-1,2-dihydropyridin-4-yl)ethyl)-1H-indole-3-carboxamide] was tested, and the IC50 (EZH2 (rPRC2); [2]) was 100 to 1000 nM, the IC50 (Y641N EZH2; [3]) was 100 to 1000 nM and the EC50 [1, 4] was over 10000 nM.
Molecule COc1cncc(C(C)n2c(C)c(C(=O)NCc3c(C)cc(C)[nH]c3=O)c3cccnc32)c1 (racemic) [Compound 215, (±)-N-((4,6-dimethyl-2-oxo-1,2-dihydropyridin-3-yl)methyl)-1-(1-(5-methoxypyridin-3-yl)ethyl)-2-methyl-1H-pyrrolo[2,3-b]pyridine-3-carboxamide] has an IC50 (EZH2 (rPRC2); [2]) of 100 to 1000 nM, an IC50 (Y641N EZH2; [3]) of 1000 to 10000 nM and an EC50 [1, 4] of 2000 to 10000 nM.
COCC(C)n1c(C)c(C(=O)NCc2c(OC)cc(C)[nH]c2=O)c2cccnc21 (single isomer, unassigned) [Compound 256, (R or S)-N-((4-methoxy-6-methyl-2-oxo-1,2-dihydropyridin-3-yl)methyl)-1-(1-methoxypropan-2-yl)-2-methyl-1H-pyrrolo[2,3-b]pyridine-3-carboxamide] gave an IC50 (EZH2 (rPRC2); [2]) of under 100 nM, an IC50 (Y641N EZH2; [3]) of 100 to 1000 nM and an EC50 [1, 4] of 400 to 2000 nM.
For Cc1cc(C)c(CNC(=O)c2c(C)n(C(C)c3ccccc3)c3ccccc23)c(O)n1 (single isomer, unassigned) [Compound 137, (R or S)—N-((2-hydroxy-4,6-dimethylpyridin-3-yl)methyl) 2-methyl-1-1-phenylethyl) 1H-indole-3-carboxamide], the EC50 ([1]; HeLa cells, MSD, 96 hours; read-out: H3K27me3_MSD_HeLa_ (EC50)) was 400 to 2000 nM.
Cc1cc(C)c(CNC(=O)c2c(C)n([C@H](C)c3ccccc3)c3ncncc23)c(O)n1 [Compound 395, (R)—N-((2-hydroxy-4,6-dimethylpyridin-3-yl)methyl)-6-methyl-7-(1-phenylethyl)-7H-pyrrolo[2,3-d]pyrimidine-5-carboxamide] showed an IC50 (EZH2 (rPRC2); [2]) of under 100 nM, an IC50 (Y641N EZH2; [3]) of 100 to 1000 nM and an EC50 [1, 4] of 2000 to 10000 nM.
With COCC(C)n1c(C)c(C(=O)NCc2c(OC)cc(C)[nH]c2=O)c2ccc(F)cc21 (racemic) [Compound 231, (±)-6-fluoro-N-((4-methoxy-6-methyl-2-oxo-1,2-dihydropyridin-3-yl)methyl)-1-(1-methoxypropan-2-yl)-2-methyl-1H-indole-3-carboxamide] the IC50 (EZH2 (rPRC2); [2]) was under 100 nM, the IC50 (Y641N EZH2; [3]) was 100 to 1000 nM and the EC50 [1, 4] was 400 to 2000 nM.
Molecule Cc1cc(C)c(CNC(=O)c2c(C)n(C(C)c3cccc(Cl)c3)c3ccccc23)c(=O)[nH]1 (racemic) [Compound 181, (±)-1-(1-(3-chlorophenyl)ethyl)-N-((4,6-dimethyl-2-oxo-1,2-dihydropyridin-3-yl)methyl)-2-methyl-1H-indole-3-carboxamide] has an IC50 (EZH2 (rPRC2); [2]) of under 100 nM, an IC50 (Y641N EZH2; [3]) of under 100 nM and an EC50 [1, 4] of 400 to 2000 nM.
COCC(C)n1c(C)c(C(=O)NCc2c(OC)cc(C)[nH]c2=O)c2ccccc21 (centres unmarked) [Compound 219, N-((4-methoxy-6-methyl-2-oxo-1,2-dihydropyridin-3-yl)methyl)-1-(1-methoxypropan-2-yl)-2-methyl-1H-indole-3-carboxamide] showed an IC50 (EZH2 (rPRC2); [2]) of under 100 nM, an IC50 (Y641N EZH2; [3]) of under 100 nM and an EC50 [1, 4] of 400 to 2000 nM.
COc1cc(C)[nH]c(=O)c1CNC(=O)c1c(C)n(C2CCCC2)c2ccccc12 [Compound 324, 1-cyclopentyl-N-((4-methoxy-6-methyl-2-oxo-1,2-dihydropyridin-3-yl)methyl)-2-methyl-1H-indole-3-carboxamide] gave an IC50 (EZH2 (rPRC2); [2]) of under 100 nM, an IC50 (Y641N EZH2; [3]) of 100 to 1000 nM and an EC50 [1, 4] of 2000 to 10000 nM.
Cc1cc(C)c(CNC(=O)c2c(C)n(C(C)c3cccc(Br)c3)c3ccccc23)c(=O)[nH]1 (racemic) [Compound 171, (±)-1-(1-(3-bromophenyl)ethyl)-N-((4,6-dimethyl-2-oxo-1,2-dihydropyridin-3-yl)methyl)-2-methyl-1H-indole-3-carboxamide] showed an IC50 (EZH2 (rPRC2); [2]) of under 100 nM, an IC50 (Y641N EZH2; [3]) of under 100 nM and an EC50 [1, 4] of 2000 to 10000 nM.
Work on COCC(C)n1c(C)c(C(=O)NCc2c(C)cc(C)[nH]c2=O)c2ccncc21 (racemic) [Compound 240, (±)-N-((4,6-dimethyl-2-oxo-1,2-dihydropyridin-3-yl)methyl)-1-(1-methoxypropan-2-yl)-2-methyl-1H-pyrrolo[2,3-c]pyridine-3-carboxamide] yielded an IC50 (EZH2 (rPRC2); [2]) of under 100 nM, an IC50 (Y641N EZH2; [3]) of 100 to 1000 nM and an EC50 [1, 4] of 2000 to 10000 nM.
In the case of Cc1ccc(C)c(-n2c(C)c(C(=O)NCc3c(C)cc(C)[nH]c3=O)c3ccccc32)c1 [Compound 191, N-((4,6-dimethyl-2-oxo-1,2-dihydropyridin-3-yl)methyl)-1-(2,5-dimethylphenyl)-2-methyl-1H-indole-3-carboxamide], the IC50 (EZH2 (rPRC2); wild-type EZH2 (rPRC2), read-out: EZH2 IC50) is reported as under 100 nM, the IC50 (Y641N EZH2; Y641N mutant EZH2, H3K27Me2 oligonucleosome substrate, read-out: Y641N EZH2 IC50) is reported as under 100 nM and the EC50 ([1]; Homo sapiens; HeLa cells, MSD, 96 hours; read-out: H3K27me3_MSD_HeLa_ (EC50)) is reported as 2000 to 10000 nM.
For COc1cc(C)[nH]c(=O)c1CNC(=O)c1c(C)n(C(C)C2CCCN(S(C)(=O)=O)C2)c2ccccc12 (centres unmarked) [Compound 318], the IC50 (EZH2 (rPRC2); [2]) was under 100 nM, the IC50 (Y641N EZH2; [3]) was under 100 nM and the EC50 [1, 4] was over 10000 nM.
Molecule CCC(C)n1c(C)c(C(=O)NCc2c(C)cc(C)nc2O)c2ccccc21 (centres unmarked) [Compound 123, 1-sec-butyl-N-((2-hydroxy-4,6-dimethylpyridin-3-yl)methyl)-2-methyl-1H-indole-3-carboxamide] has an EC50 [1, 4] of 400 to 2000 nM.
COc1cc(C)[nH]c(=O)c1CNC(=O)c1c(C)n(C(C)c2ccccc2)c2cnccc12 (single isomer, unassigned) [Compound 259, (R or S)-N-((4-methoxy-6-methyl-2-oxo-1,2-dihydropyridin-3-yl)rnethyl)-2-methyl-1-(1-phenylethyl)-1H-pyrrolo[2,3-c]pyridine-3-carboxamide] was tested, and the IC50 (EZH2 (rPRC2); read-out: EZH2 IC50, wild-type EZH2 (rPRC2)) was under 100 nM and the EC50 ([1]; read-out: H3K27me3_MSD_HeLa_ (EC50); HeLa cells, MSD, 96 hours) was 400 to 2000 nM.
Work on CCC(C)n1c(C)c(C(=O)NCc2c(C)cc(C)nc2O)c2ccccc21 (single isomer, unassigned) [Compound 147, (R or S)-1-sec-butyl-N-((2-hydroxy-4,6-dimethylpyridin-3-yl)methyl)-2-methyl-1H-indole-3-carboxamide] yielded an EC50 [1, 4] of 400 to 2000 nM.
Cc1cc(C)c(CNC(=O)c2c(C)n(C(C)C3CCN(C4CNC4)CC3)c3ccccc23)c(=O)[nH]1 (single isomer, unassigned) [Compound 376, (R or S)-1-(1-(1-(azetidin-3-yl)piperidin-4-yl)ethyl)-N-((4,6-dimethyl-2-oxo-1,2-dihydropyridin-3-yl)methyl)-2-methyl-1 H-indole-3-carboxamide hydrochloride] gave an IC50 (EZH2 (rPRC2); [2]) of under 100 nM and an IC50 (Y641N EZH2; [3]) of under 100 nM.
In the case of COCC(C)n1c(C)c(C(=O)NCc2c(C)cc(C)[nH]c2=O)c2ccccc21 (single isomer, unassigned; peak 2) [Compound 218, (R or S)-N-((4,6-dimethyl-2-oxo-1,2-dihydropyridin-3-yl)methyl)-1-(1-methoxypropan-2-yl)-2-methyl-1H-indole-3-carboxamide-PEAK 2], the EC50 [1, 4] is reported as under 400 nM.
